Reference: patent US20210301315A1, “METHODS FOR TREATING POLYMICROBIAL INFECTIONS” (priority 2017, published 2021)
“Also recorded” adds a separate entry of the source.

What was measured:
[1] = tested on: E. coli and S. agalactiae; assay: P-AST species-pair interaction on antibiotic resistance (logistic regression, HSAP/UP); format: cell-based, Escherichia coli; Streptococcus agalactiae; details: E. coli and S. agalactiae together v. expected from each species alone (HSAP/UP)
Description: (§1) The Pooled Antibiotic Sensitivity Test (P-AST) is permitting the organisms identified to grow in the presence of antibiotics and measuring the minimum concentration of antibiotic to inhibit growth. Antibiotic susceptibility testing is performed when at least a single organism within a pool of organisms reaches a certain threshold, (e.g., at least 3,000 cells/ml, at least 5,000 cells/ml, at least 10,000 cells/ml, etc.) and can grow in the presence of the antibiotic in the assay within the time of testing. (Note: 10,000 cells/ml is equivalent to 10,000 CFU/ml.) The present invention is not limited to a 10,000 cells/mL threshold. These pools of organism(s) are inoculated into growth medium then placed onto an antibiotic laden “spec plate” that is then incubated and analyzed for growth. The breakpoints are derived from the CLSI breakpoints.
(§2) P-AST was performed by aliquoting 1 mL of patient urine specimen into a 1.7 mL microcentrifuge tube. After centrifugation, the supernatant was aspirated and discarded, leaving approximately 100 or 50 μL (minimum volume left above pellet created from centrifugation) of patient sample in the microcentrifuge tube. One mL of Mueller Hinton Growth Media was then aliquoted into the patient sample in the microcentrifuge tube and the tubes were incubated at 35° C. in a non-CO2 incubator for 6 hours. Non-inoculated liquid MH-media is incubated as the negative control to confirm the media used is not contaminated. Those samples that reached a minimum threshold of 10,000 cells/mL were then diluted by aliquoting 0.5 mL of sample into a 50 mL conical tube containing Mueller Hinton Growth Media (in this example, the dilution was 1:60, e.g., 500 μL was added to 29.5 mL). 96-well plates pre-loaded with antibiotics were then inoculated with diluted samples and incubated along with control plates for 12-16 hours at 35° C. in a single layer. Optical density of samples was then read on a DensiCHEK plate reader. The DensiCHEK instrument is used to measure the concentration of turbid samples considered positive because PCR-ID result was >=10,000 cells/mL. The turbid samples were diluted/normalized to the same concentration and then added to a volume of liquid, e.g., 29.5 mL of liquid MH-media. A spectrophotometer (plate reader) is used to measure optical density of the samples in wells of antibiotics and inoculum in order to determine if there is growth in a well. The present invention is not limited to a concentration of 10,000 cells/mL.
Interactions between pairs of bacterial species were investigated using a logistic regression model to predict resistance in the presence of specific bacterial species. Bacterial species that tested positive in at least 30 samples were considered in the regression model: these 16 species were A. schaalii, A. urinae, A. omnicolens, CoNS, C. riegelii, E. faecalis, E. coli, K. oxytoca, K. pneumoniae, M. morganii, P. mirabilis, P. aeruginosa, S. aureus, S. agalactiae, U. urealyticum, VGS. Backward stepwise model selection was performed on the model with all main effects and all pairwise interactions using an enter significance level of α=0.10 and an exit significance level of α=0.05 to obtain the best fitting model. This model was used to predict resistance rates when a specific organism was present or when a specific pair of organisms were present.
Using the logistic regression model described above, the resistance rate for a pair of species was compared to the resistance rates for each species alone. […]

[2] = tested on: bacterial organisms present in patient urine sample; assay: Antibiotic Resistance (ABR) assay utilizing liquid growth medium; format: cell-based; details: for Blanked (OD reading): blanked with Na-Azide well; for Mean (OD reading): raw OD600 of well; for Result (Resistant/Sensitive): threshold OD600 of 0.065
Description: Urine samples suitable for processing with this assay are collected, transported, and stored using BD Vacutainer tubes or other suitable leak-proof sterile containers. Urine samples may be held at room temperature for 48 hours before test results are compromised.
Antibiotic stocks are stored at 2-8° C. and protected from direct sunlight. Prepared antibiotic stock solutions were aliquoted into a 96-deep well plate (ThermoFisher Scientific) to form a 50× Antibiotic Source Plate and then diluted 1:5 to form a 10× Antibiotic Source Plate, as shown in FIG. 12 where each well is identified by antibiotic name and concentration (μg/mL; 10× final concentration). […] One well was assigned sodium azide to ensure no bacterial growth would be observed in that well.
Twenty microliters of each antibiotic solution were aliquoted into the pre-determined wells of a 96-well microplate (VIS 96/F-PS, Eppendorf) from the 10× Antibiotic Source Plate to create ABR testing plates for inoculation. These ABR testing plates were allowed to sit for up to 24 hours before use at 2-8° C. in the dark.
At the time of testing, urine samples were centrifuged to concentrate any bacterial cells and then mixed with liquid Mueller-Hinton medium and incubated for 6-16 hours at 37° C. After this initial incubation, the sample is diluted to 0.5-0.6 McF in saline and then 500 μl of that suspension was added to […] of Mueller-Hinton medium. One-hundred and eighty microliters of the diluted sample is then aliquoted to each well of the ABR microplate already containing 10× antibiotic solution, bringing all of the antibiotics to the desired final concentration. The plate is then sealed and incubated for 12-16 hours at 37° C.
After incubation, the plate was removed from the incubator and carefully uncovered and the OD600 was determined for each appropriate well by spectrophotometer. Five separate measurements were taken of each well on a plate and the mean OD600 measurement calculated for each well.
Controls are depicted in Table 10.
The raw data was then “blanked” using the measurement obtained from the Na-Azide well, as depicted in Table 14.
To determine whether bacterial organisms present in the patient samples were resistant or sensitive to a particular antibiotic at a certain concentration, blanked OD readings were compared to a threshold OD600 of 0.065 (Table 15). An OD measurement greater than or equal to this threshold was designated Resistant (R) meaning bacterial organisms present in patient sample were resistant to that particular antibiotic at that certain concentration. Any OD measurement less than this threshold was designated Sensitive (S) meaning bacterial organisms present in patient sample were sensitive to that particular antibiotic at that certain concentration.

E. coli and K. oxytoca = assay: P-AST species-pair interaction on antibiotic resistance (logistic regression, HSAP/UP); format: cell-based, Escherichia coli; Klebsiella oxytoca; details: E. coli and K. oxytoca together v. expected from each species alone (HSAP/UP)
Description: as §1
(§3) P-AST was performed by aliquoting 1 mL of patient urine specimen into a 1.7 mL microcentrifuge tube. After centrifugation, the supernatant was aspirated and discarded, leaving approximately 100 or 50 μL (minimum volume left above pellet created from centrifugation) of patient sample in the microcentrifuge tube. […] Optical density of samples was then read on a DensiCHEK plate reader. […] A spectrophotometer (plate reader) is used to measure optical density of the samples in wells of antibiotics and inoculum in order to determine if there is growth in a well. […]

[3] = tested on: Coagulase-negative Staphylococcus (CoNS) and S. agalactiae; details: CoNS and S. agalactiae together v. expected from each species alone (HSAP/UP)
Description: (§4) The Pooled Antibiotic Sensitivity Test (P-AST) is permitting the organisms identified to grow in the presence of antibiotics and measuring the minimum concentration of antibiotic to inhibit growth. Antibiotic susceptibility testing is performed when at least a single organism within a pool of organisms reaches a certain threshold, (e.g., at least 3,000 cells/ml, at least 5,000 cells/ml, at least 10,000 cells/ml, etc.) and can grow in the presence of the antibiotic in the assay within the time of testing. […] These pools of organism(s) are inoculated into growth medium then placed onto an antibiotic laden “spec plate” that is then incubated and analyzed for growth. The breakpoints are derived from the CLSI breakpoints.
P-AST was performed by aliquoting 1 mL of patient urine specimen into a 1.7 mL microcentrifuge tube. After centrifugation, the supernatant was aspirated and discarded, leaving approximately 100 or 50 μL (minimum volume left above pellet created from centrifugation) of patient sample in the microcentrifuge tube. One mL of Mueller Hinton Growth Media was then aliquoted into the patient sample in the microcentrifuge tube and the tubes were incubated at 35° C. in a non-CO2 incubator for 6 hours. […] Those samples that reached a minimum threshold of 10,000 cells/mL were then diluted by aliquoting 0.5 mL of sample into a 50 mL conical tube containing Mueller Hinton Growth Media (in this example, the dilution was 1:60, e.g., 500 μL was added to 29.5 mL). 96-well plates pre-loaded with antibiotics were then inoculated with diluted samples and incubated along with control plates for 12-16 hours at 35° C. in a single layer. Optical density of samples was then read on a DensiCHEK plate reader. The DensiCHEK instrument is used to measure the concentration of turbid samples considered positive because PCR-ID result was >=10,000 cells/mL. The turbid samples were diluted/normalized to the same concentration and then added to a volume of liquid, e.g., 29.5 mL of liquid MH-media. A spectrophotometer (plate reader) is used to measure optical density of the samples in wells of antibiotics and inoculum in order to determine if there is growth in a well.
Interactions between pairs of bacterial species were investigated using a logistic regression model to predict resistance in the presence of specific bacterial species. Bacterial species that tested positive in at least 30 samples were considered in the regression model: these 16 species were A. schaalii, A. urinae, A. omnicolens, CoNS, C. riegelii, E. faecalis, E. coli, K. oxytoca, K. pneumoniae, M. morganii, P. mirabilis, P. aeruginosa, S. aureus, S. agalactiae, U. urealyticum, VGS. […]

[4] = tested on: bacteria detected in patient urine specimens; assay: Pooled Antibiotic Susceptibility Testing (P-AST) of urine specimens, polymicrobial v. monomicrobial (logistic regression); format: cell-based; details: urine specimens, 95% confidence interval in parentheses
Description: The present invention describes Pooled Antibiotic Susceptibility Testing (P-AST), which involves simultaneously growing all detected bacteria together in the presence of antibiotics and then measuring susceptibility. […] Urine specimens were obtained from patients presenting with UTI-like symptoms to 37 urology clinics. The odds of resistance were estimated for 18 antibiotics relative to increasing numbers of bacterial species in a specimen.
The following study combines data from two studies of antibiotic resistance patterns in elderly patients presenting with symptoms consistent with a UTI. […] All subjects met the following inclusion and exclusion criteria. Inclusion criteria included: symptoms of acute cystitis, complicated UTI, persistent UTI, recurrent UTI, prostatitis, pyelonephritis, interstitial cystitis (at any age), symptoms of other conditions at years of age, specimen volumes sufficient to permit urine culture and Multiplex Polymerase Chain Reaction (M-PCR) combined with Pooled Antibiotic Sensitivity Testing (P-AST), patient informed consented, documented times at which the specimens were collected and stabilized with boric acid in grey-top tubes. Exclusion criteria included prior participation in this study, antibiotics taken for any reason other than UTI at the time of enrollment, chronic (≥10 days) indwelling catheters, self-catheterization, and urinary diversion.
as §4

[5] = tested on: Coagulase-negative Staphylococcus (CoNS) and K. pneumoniae; assay: P-AST species-pair interaction on antibiotic resistance (logistic regression, HSAP/UP); format: cell-based, Coagulase negative staphylococci; Klebsiella pneumoniae; details: CoNS and K. pneumoniae together v. expected from each species alone (HSAP/UP)
Description: as §1, §2
Interactions between pairs of bacterial species were investigated using a logistic regression model to predict resistance in the presence of specific bacterial species. […]

[6] = tested on: Coagulase-negative Staphylococcus (CoNS) and E. faecalis; assay: as above; format: cell-based, Coagulase negative staphylococci; Enterococcus faecalis; details: CoNS and E. faecalis together v. expected from each species alone (HSAP/UP)
Description: as §1, §3

[7] = antibiotic 1 μg/mL, liquid medium
[8] = antibiotic 2 μg/mL, liquid medium
[9] = antibiotic 4 μg/mL, liquid medium
[10] = antibiotic 8 μg/mL, liquid medium
[11] = antibiotic 16 μg/mL, liquid medium
[12] = antibiotic 32 μg/mL, liquid medium

How did the “change in antibiotic resistance of the pair of organisms” value [1] turn out when `CO/N=C(\C(=O)N[C@@H]1C(=O)N2C(C(=O)[O-])=C(C[N+]3(C)CCCC3)CS[C@H]12)c1csc(N)n1` [Cefepime, cefepime] was run?
Its value is “decrease in resistance; also recorded: decreased odds of resistance”.

And the “Blanked (OD600 minus Na-Azide well)” value [2, 7]?
The value was 0.1959.

What about the “Mean (OD600)” value [2, 7] of the same molecule?
Its value is 0.2416.

And the “Blanked (OD600 minus Na-Azide well)” value [2, 8]?
Its value is 0.1970.

What about the “Mean (OD600)” value [2, 8] of the same molecule?
The value was 0.2427.

And the “Blanked (OD600 minus Na-Azide well)” value [2, 9]?
Its value is 0.1960.

What about the “Mean (OD600)” value [2, 9] of the same molecule?
The value was 0.2417.

And the “Blanked (OD600 minus Na-Azide well)” value [2, 10]?
The value was 0.1947.

What about the “Mean (OD600)” value [2, 10] of the same molecule?
Its value is 0.2404.

And the “Blanked (OD600 minus Na-Azide well)” value [2, 11]?
The value was 0.1866.

And the “Mean (OD600)” value [2, 11]?
The value was 0.2323.

And the “Blanked (OD600 minus Na-Azide well)” value [2, 12]?
The value was 0.1824.

And the “Mean (OD600)” value [2, 12]?
Its value is 0.2281.

What about the “change in antibiotic resistance of the pair of organisms” value (E. coli and K. oxytoca) of the same molecule?
The value was “decrease in resistance; also recorded: decreased odds of resistance”.

What does the source list for gentamicin?
Blanked (OD600 minus Na-Azide well) [2, 9]: 0.0158; Mean (OD600) [2, 9]: 0.0615; Blanked (OD600 minus Na-Azide well) [2, 11]: −0.0031; Mean (OD600) [2, 11]: 0.0426; Blanked (OD reading) ([2]; antibiotic concentration 4): 0.0158; Mean (OD reading) ([2]; antibiotic concentration 4): 0.0615; Result (Resistant/Sensitive) ([2]; antibiotic concentration 4): S (Any OD measurement less than this threshold was designated Sensitive (S)); Blanked (OD reading) ([2]; antibiotic concentration 16): −0.0031; Mean (OD reading) ([2]; antibiotic concentration 16): 0.0426; Result (Resistant/Sensitive) ([2]; antibiotic concentration 16): S (Any OD measurement less than this threshold was designated Sensitive (S)); overall sensitivity of the bacteria in the sample to the antibiotic (in words) ([2]; liquid medium, Example 4 sample): sensitive; change in antibiotic resistance of the pair of organisms [3]: decrease in resistance; also recorded: decreased odds of resistance; Odds Ratio of Resistance Polymicrobial v. Monomicrobial [4]: 1.17 (0.90, 1.51); Odds Ratio of Resistance for Each Additional Species [4]: 1.01 (0.92, 1.11); change in antibiotic resistance of the pair of organisms [5]: decrease in resistance; also recorded: decreased odds of resistance; change in antibiotic resistance of the pair of organisms [6]: decrease in resistance; also recorded: decreased odds of resistance
